Measured values reported in ChEMBL document CHEMBL3885881, “DrugMatrix”.

Species on record: Rattus norvegicus
Test: DrugMatrix - Regimen: Daily Repeat
Format: toxicity, organism-based, Sprague-Dawley
Parameters: regimen Daily Repeat, gender Male, age 6-8 weeks
Settings: in vivo, po, route oral GAVAGE, vehicle 100 % SALINE; for ABSOLUTE BASOPHIL / ABSOLUTE EOSINOPHIL / ABSOLUTE LYMPHOCYTE / ABSOLUTE MONOCYTE / ABSOLUTE SEGMENTED NEUTROPHIL / BASOPHIL / EOSINOPHIL / ERYTHROCYTE COUNT / HEMATOCRIT / HEMOGLOBIN / LEUKOCYTE COUNT / LYMPHOCYTE / MEAN CORPUSCULAR HEMOGLOBIN / MEAN CORPUSCULAR HEMOGLOBIN CONCENTRATION / MEAN CORPUSCULAR VOLUME / MONOCYTE / NEUTROPHIL / NUCLEATED RED BLOOD CELLS / PLATELET COUNT: tissue Blood; for ALANINE AMINOTRANSFERASE / ALBUMIN / ALKALINE PHOSPHATASE / ASPARTATE AMINOTRANSFERASE / BLOOD UREA NITROGEN / CARBON DIOXIDE / CHLORIDE / CHOLESTEROL / CREATINE PHOSPHOKINASE / CREATININE / GLUCOSE / LACTATE DEHYDROGENASE / LIPASE / PHOSPHORUS / POTASSIUM / SODIUM / TOTAL BILIRUBIN / TOTAL PROTEIN / URIC ACID: tissue Plasma
[1] = 0 mg/kg, 72 h, dose level Control, time 3 day
[2] = 0 mg/kg, 120 h, dose level Control, time 5 day
[3] = 59 mg/kg, 72 h, dose level Low, time 3 day

NC(=O)NO [HYDROXYUREA]
ABSOLUTE BASOPHIL [1]: 0 CELLS/uL
ABSOLUTE EOSINOPHIL [1]: 16.17 CELLS/uL
ABSOLUTE LYMPHOCYTE [1]: 9117 CELLS/uL
ABSOLUTE MONOCYTE [1]: 16.17 CELLS/uL
ABSOLUTE SEGMENTED NEUTROPHIL [1]: 484 CELLS/uL
BASOPHIL [1]: 0%
EOSINOPHIL [1]: 0.17%
ERYTHROCYTE COUNT [1]: 5.19 x10E6/uL
HEMATOCRIT [1]: 34.9%
HEMOGLOBIN [1]: 13.35 G/DL
LEUKOCYTE COUNT [1]: 9.63 x10E3/uL
LYMPHOCYTE [1]: 94.5%
MEAN CORPUSCULAR HEMOGLOBIN [1]: 25.72 pg
MEAN CORPUSCULAR HEMOGLOBIN CONCENTRATION [1]: 38.25 G/DL
MEAN CORPUSCULAR VOLUME [1]: 67.22 fL
MONOCYTE [1]: 0.17%
NEUTROPHIL [1]: 5.17%
NUCLEATED RED BLOOD CELLS [1]: 0.33 /100WBC
PLATELET COUNT [1]: 1142 x10E3/uL
ALANINE AMINOTRANSFERASE [1]: 47.33 u/L
ALBUMIN [1]: 4.13 G/DL
ALKALINE PHOSPHATASE [1]: 320.33 u/L
ASPARTATE AMINOTRANSFERASE [1]: 76.17 u/L
BLOOD UREA NITROGEN [1]: 12.67 mg/dL
CARBON DIOXIDE [1]: 30.83 mmol/L
CHLORIDE [1]: 99 MEQ/L
CHOLESTEROL [1]: 74.17 mg/dL
CREATINE PHOSPHOKINASE [1]: 271 u/L
CREATININE [1]: 0.15 mg/dL
GLUCOSE [1]: 150.5 mg/dL
LACTATE DEHYDROGENASE [1]: 92.67 u/L
LIPASE [1]: 10 u/L
PHOSPHORUS [1]: 10.67 mg/dL
POTASSIUM [1]: 5.78 MEQ/L
SODIUM [1]: 142.83 MEQ/L
TOTAL BILIRUBIN [1]: 0.1 mg/dL
TOTAL PROTEIN [1]: 6.18 G/DL
URIC ACID [1]: 0.65 mg/dL
ABSOLUTE BASOPHIL [2]: 0 CELLS/uL
ABSOLUTE EOSINOPHIL [2]: 0 CELLS/uL
ABSOLUTE LYMPHOCYTE [2]: 8222.33 CELLS/uL
ABSOLUTE MONOCYTE [2]: 89.67 CELLS/uL
ABSOLUTE SEGMENTED NEUTROPHIL [2]: 471.33 CELLS/uL
BASOPHIL [2]: 0%
EOSINOPHIL [2]: 0%
ERYTHROCYTE COUNT [2]: 5.13 x10E6/uL
HEMATOCRIT [2]: 33.47%
HEMOGLOBIN [2]: 12.97 G/DL
LEUKOCYTE COUNT [2]: 8.78 x10E3/uL
LYMPHOCYTE [2]: 93%
MEAN CORPUSCULAR HEMOGLOBIN [2]: 25.3 pg
MEAN CORPUSCULAR HEMOGLOBIN CONCENTRATION [2]: 38.77 G/DL
MEAN CORPUSCULAR VOLUME [2]: 65.23 fL
MONOCYTE [2]: 1%
NEUTROPHIL [2]: 6%
NUCLEATED RED BLOOD CELLS [2]: 0 /100WBC
PLATELET COUNT [2]: 1298.5 x10E3/uL
ALANINE AMINOTRANSFERASE [2]: 56 u/L
ALBUMIN [2]: 3.98 G/DL
ALKALINE PHOSPHATASE [2]: 321.67 u/L
ASPARTATE AMINOTRANSFERASE [2]: 99.17 u/L
BLOOD UREA NITROGEN [2]: 13.8 mg/dL
CARBON DIOXIDE [2]: 29 mmol/L
CHLORIDE [2]: 98.67 MEQ/L
CHOLESTEROL [2]: 59.67 mg/dL
CREATINE PHOSPHOKINASE [2]: 363 u/L
CREATININE [2]: 0.24 mg/dL
GLUCOSE [2]: 167.83 mg/dL
LACTATE DEHYDROGENASE [2]: 120.83 u/L
LIPASE [2]: 22.5 u/L
PHOSPHORUS [2]: 11.6 mg/dL
POTASSIUM [2]: 5.62 MEQ/L
SODIUM [2]: 143 MEQ/L
TOTAL BILIRUBIN [2]: 0.17 mg/dL
TOTAL PROTEIN [2]: 5.95 G/DL
URIC ACID [2]: 0.87 mg/dL
ABSOLUTE BASOPHIL [3]: 0 CELLS/uL
ABSOLUTE EOSINOPHIL [3]: 15 CELLS/uL
ABSOLUTE LYMPHOCYTE [3]: 4978 CELLS/uL
ABSOLUTE MONOCYTE [3]: 44 CELLS/uL
ABSOLUTE SEGMENTED NEUTROPHIL [3]: 663 CELLS/uL
BASOPHIL [3]: 0%
EOSINOPHIL [3]: 0.33%
ERYTHROCYTE COUNT [3]: 5.08 x10E6/uL
HEMATOCRIT [3]: 33.63%
HEMOGLOBIN [3]: 12.83 G/DL
LEUKOCYTE COUNT [3]: 5.7 x10E3/uL
LYMPHOCYTE [3]: 87.67%
MEAN CORPUSCULAR HEMOGLOBIN [3]: 25.3 pg
MEAN CORPUSCULAR HEMOGLOBIN CONCENTRATION [3]: 38.17 G/DL
MEAN CORPUSCULAR VOLUME [3]: 66.27 fL
MONOCYTE [3]: 0.67%
NEUTROPHIL [3]: 11.33%
NUCLEATED RED BLOOD CELLS [3]: 0 /100WBC
PLATELET COUNT [3]: 1118 x10E3/uL
ALANINE AMINOTRANSFERASE [3]: 47.33 u/L
ALBUMIN [3]: 4.17 G/DL
ALKALINE PHOSPHATASE [3]: 328 u/L
ASPARTATE AMINOTRANSFERASE [3]: 73.67 u/L
BLOOD UREA NITROGEN [3]: 11.33 mg/dL
CARBON DIOXIDE [3]: 30 mmol/L
CHLORIDE [3]: 99 MEQ/L
CHOLESTEROL [3]: 75.33 mg/dL
CREATINE PHOSPHOKINASE [3]: 258 u/L
CREATININE [3]: 0.2 mg/dL
GLUCOSE [3]: 152 mg/dL
LACTATE DEHYDROGENASE [3]: 90 u/L
LIPASE [3]: 10 u/L
PHOSPHORUS [3]: 10.83 mg/dL
POTASSIUM [3]: 5.95 MEQ/L
SODIUM [3]: 142.63 MEQ/L
TOTAL BILIRUBIN [3]: 0.1 mg/dL
TOTAL PROTEIN [3]: 6.07 G/DL
URIC ACID [3]: 0.9 mg/dL
